We go through eight molecules from patent US10300056B2, “CGRP receptor antagonists” (Heptares Therapeutics Limited, priority 2015, dated 2019).

As a reminder, the thermodynamic solubility is the concentration in solution at equilibrium with solid.

≈ marks a conversion by molar mass, not a printed value. Counter-ions that a name gives are not always drawn. Like-named read-outs stand apart in the source and are kept apart here.

Series [1] has as its target CGRP receptor ectodomain complex (Homo sapiens (Human), UniProt O60894+Q16602). Nature of the series: Receptor kinetic profiling by surface plasmon resonance (Biacore T200). Particulars: SPR; for CGRP t1/2: dissociation half-life, 25° C.; for receptor dissociation (off-rate) compared with olcegepant or MK-3207: in words. Background: SPR reads the build-up and loss of mass on a sensor chip optically.
Experimental: Kinetic analyses were run on a Biacore T200 instrument (GE Healthcare Bio-Sciences AB, Uppsala, Sweden) at 25° C. using 0.05 mM EDTA, PBS (10 mM phosphate buffer, 2.7 mM KCl, 137 mM NaCl) pH 7.4, 0.005% v/v Surfactant P20, 5% DMSO as the running buffer. […] The chip was loaded with Ni^2+ and carboxyl groups of the dextran matrix were activated by EDC/NHS. The receptor ectodomain complex (100 nM in running buffer) was then injected and immobilised via the His-tag and amino groups. Two fold dilution series of each compound (five concentrations, in the range 25-40 nM) were injected. Blank-subtracted data were fitted to a 1:1 interaction model to obtain kinetic parameters which are expressed in Table 4 as dissociation half-life (t1/2=(ln 2/off-rate (kd)/60).

In series [2] the target is CGRP receptor (Homo sapiens (Human), UniProt O60894+Q16602). Nature of the series: cAMP functional assay (HTRF) in SK-N-MC cells. Format: cell-based. Particulars: read-out: pkb average (converted). As for the experimental part:
cAMP production following receptor activation was determined using the Homogeneous Time-Resolved Fluorescence (HTRF) cAMP dynamic-2 assay (Cisbio, France). The human neuroblastoma cell line SK-N-MC endogenously expressing the human CGRP receptor was seeded at a density of 12,500 cells/well in solid walled 96 well half area plates (Costar, Catalog Number 3688, Corning Life Sciences, Germany). After 16 h incubation at 37° C. media was removed and cells were incubated at 37° C. for 30 min in serum free media containing 500 μM IBMX (Tocris, Abingdon, UK, Catalog Number 2845) and increasing concentrations of test antagonist. Following this cells were challenged with an EC80 concentration of human CGRP (0.3 nM) for a further 30 min at 37° C. and then cAMP production was determined as manufacturer's instructions before plates were read on a PheraStar fluorescence plate reader (BMG LabTech, Germany). IC50 values were derived from the inhibition curve. The pIC50 values (where pIC50=−log10 IC50) were converted to a functional pKb value using a modified Cheng-Prussoff equation where Kd=agonist EC50 and L hot=agonist challenge concentration. The pKb values of certain compounds of the invention are detailed in Table 3.

Series [3] in a line: Thermodynamic solubility profiling. Format: physicochemical. Particulars: aqueous buffer, thermodynamic from solid. Here is the method:
A 50 mM DMSO stock solution of test compound was prepared, and from this, a working solution of 1 mM was prepared by dilution with DMSO. The UV absorbance of working solution was scanned from 220 nm to 1000 nm to identify the wavelength maxima of test compound. The 1 mM working solution was then serially diluted in DMSO to different concentrations to determine linearity/calibration curve. […] The resulting solution was then kept on a RotoSpin shaker at 50 rpm for 24 h at rt before the solution was filtered using 0.45 micron PVDF injector filters in order to remove the insoluble fraction of the compound. Subsequently, 150 uL of the filtrate is taken for quantification using a UV spectrophotometer, acquiring the optical density of standard solutions and test compound at the same wavelength maxima. From the optical density of test compound the thermodynamic solubility is calculated using the linearity/calibration curve and expressed as micromolar (μM). Solubility profiles of certain compounds of the invention are detailed in Table 7.

In series [4] the target is Human CGRP receptors (consisting of CRLR and RAMP1) (Homo sapiens (Human), UniProt O60894+Q16602). Nature of the series: Radioligand binding assay (3H-telcagepant displacement). Particulars: Sf21 membranes, 0.5 nM 3H-telcagepant, Cheng-Prussoff. As for the experimental part: Human Calcitonin Receptor Like Receptor (CRLR) and human RAMP1 were cloned into Invitrogen's (ThermoFisher Scientific, UK) pFastBac dual expression vector. Transposition of CRLR/RAMP1 DNA was performed using Invitrogen's Bac-to-Bac Baculovirus Expression Systems. P0 baculovirus was generated by transfecting SF9 cells with bacmid DNA using Cellfectin® II transfection reagent (ThermoFisher Scientific, UK, catalog number 10362-100). Following P0 generation P1 virus was then generated ready for large scale infection and membrane preparation. Sf21 cells were grown in expression medium ESF921 (Expression Systems, USA, catalog number 96-001-01) supplemented with 10% heat-inactivated FBS and 1% Pen/Strep and were infected at a cell density of 2.5×10^6 cells/mL and an MOI of 2. Expression was carried out over 48 h in a shaking incubator set at 27° C. The cell culture was centrifuged at 2,500 rcf for 10 min at 4° C. The pellets were resuspended in cold PBS supplemented with Roche's Complete EDTA-free protease inhibitor cocktail tablets (Roche Applied Sciences, catalog number 05056489001), 1 mM PMSF and 1 mM EDTA. The resuspended cell paste was then centrifuged at 3,273 rcf for 12 min at 4° C. The supernatant was discarded and the pellet frozen at −80° C. The cell pellet from a 4 L culture was resuspended in buffer containing 50 mM Hepes pH 7.5, 150 mM NaCl, 8 Roche EDTA-free protease inhibitor cocktail tablets and 1 mM PMSF. The suspension was left stirring at rt for 1 h and then homogenised for 90 s at 9,500 rpm using a VDI 25 (VWR, USA) homogeniser. The cells were then lysed using a Microfluidizer processor M-110L Pneumatic (Microfluidics, USA). After lysis, the mixture was homogenised for 90 s at 9,500 rpm and then centrifuged at 335 rcf for 10 min. The supernatant was then further ultra-centrifuged at 42,000 rpm for 90 min. After ultra-centrifugation, the supernatant was discarded and the pellet was resuspended in 50 mL (25 mL for each 2 L culture) of buffer containing 50 mM Hepes pH 7.5, 150 mM NaCl, 3 Roche EDTA-free protease inhibitor cocktail tablets and 1 mM PMSF. The suspension was then homogenised for 90 s at 9,500 rpm. The resulting membranes were then stored at −80° C.
Human CGRP receptors expressed (consisting of CRLR and RAMP1) in insect Sf21 cell membrane homogenates were re-suspended in the binding buffer (10 mM HEPES, pH 7.4, 5 mM MgCl2, 0.2% BSA) to a final assay concentration of 0.6 μg protein per well. Saturation isotherms were determined by the addition of various concentrations of ^3H-telcagepant (Ho et al, The Lancet, 2008, 372, 2115) (in a total reaction volume of 250 μL) for 60 min at rt. At the end of the incubation, membranes were filtered onto a unifilter, a 96-well white microplate with bonded GF/B filter pre-incubated with 0.5% PEI, with a Tomtec cell harvester and washed 5 times with distilled water. Non-specific binding (NSB) was measured in the presence of 10 nM MK-3207 hydrochloride (CAS No. 957116-20-0). Radioactivity on the filter was counted (1 min) on a microbeta counter after addition of 50 μL of scintillation fluid. For inhibition experiments, membranes were incubated with 0.5 nM ^3H-telcagepant and 10 concentrations of the inhibitory compound (0.001-10 μM). IC50 values were derived from the inhibition curve and the affinity constant (Ki) values were calculated using the Cheng-Prussoff equation (Cheng et al, Biochem. Pharmacol. 1973, 22, 3099-3108).

The mark [5] stands for this setting: PBS buffer pH 7.4, 24 h at rt, read-out: Thermodynamic solubility pH 7.4.
Where [6] appears, read: Sodium Phosphate Buffer pH 6.0, 24 h at rt, read-out: Thermodynamic solubility pH 6.

Sequence of CGRP receptor (Q16602 23-461): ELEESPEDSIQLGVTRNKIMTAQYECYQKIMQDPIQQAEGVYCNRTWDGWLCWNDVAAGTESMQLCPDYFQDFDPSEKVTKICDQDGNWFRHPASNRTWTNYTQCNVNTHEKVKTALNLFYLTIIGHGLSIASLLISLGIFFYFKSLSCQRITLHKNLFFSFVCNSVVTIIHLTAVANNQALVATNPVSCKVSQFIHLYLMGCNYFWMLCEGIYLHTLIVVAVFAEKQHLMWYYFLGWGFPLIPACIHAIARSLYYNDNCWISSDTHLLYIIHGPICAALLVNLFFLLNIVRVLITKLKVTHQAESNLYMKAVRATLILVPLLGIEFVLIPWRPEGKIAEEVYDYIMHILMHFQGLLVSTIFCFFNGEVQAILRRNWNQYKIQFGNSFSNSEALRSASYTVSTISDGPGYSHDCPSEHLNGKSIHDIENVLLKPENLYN
Sequence of CGRP receptor (O60894 27-148): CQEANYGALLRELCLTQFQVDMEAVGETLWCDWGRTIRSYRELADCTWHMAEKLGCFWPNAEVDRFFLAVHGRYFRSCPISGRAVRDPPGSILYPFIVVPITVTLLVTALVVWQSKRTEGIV
Sequence of Human CGRP receptors (consisting of CRLR and RAMP1) (Q16602 23-461): as the sequence (Q16602 23-461) above
Sequence of Human CGRP receptors (consisting of CRLR and RAMP1) (O60894 27-148): as the sequence (O60894 27-148) above
Sequence of CGRP receptor ectodomain complex (Q16602 23-139): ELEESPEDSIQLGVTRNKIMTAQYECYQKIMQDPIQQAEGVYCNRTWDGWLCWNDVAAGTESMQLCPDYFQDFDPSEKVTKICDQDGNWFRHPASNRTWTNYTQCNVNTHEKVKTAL
Sequence of CGRP receptor ectodomain complex (O60894 27-118): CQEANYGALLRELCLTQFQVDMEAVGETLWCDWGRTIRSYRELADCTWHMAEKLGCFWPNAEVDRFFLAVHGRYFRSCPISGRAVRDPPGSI

Take `Cc1cc(C[C@@H](NC(=O)N2CCC(N3Cc4ccccc4NC3=O)CC2)C(=O)N[C@@H](CC2CCNCC2)C(=O)N2CCN(c3ccncc3)CC2)cc2cn[nH]c12` [Example 10, N-[(2R)-3-(7-methyl-1H-indazol-5-yl)-1-oxo-1-({(2S)-1-oxo-3-(piperidin-4-yl)-1-[4-(pyridin-4-yl)piperazin-1-yl]propan-2-yl}amino)propan-2-yl]-4-(2-oxo-1,4-dihydroquinazolin-3(2H)-yl)piperidine-1-carboxamide]: in series [1], the “CGRP t1/2” value was determined as 3 min. Besides, the Kb in series [2] is 0.0794 nM. Besides, the solubility (thermodynamic) at 24 h came to 1200 µM (≈ 935 µg/mL) in series [3] (setting [5]) and 1170 µM (≈ 909 µg/mL) in series [3] (setting [6]). The pKi average in series [4] is given as 10.2.

Consider `Cc1cc(C[C@@H](NC(=O)N2CCC(n3c(=O)[nH]c4ncccc43)CC2)C(=O)N[C@@H](CC2CCN(C(=O)CC(=O)O)CC2)C(=O)N2CCN(c3ccncc3)CC2)cc2cn[nH]c12` [Example 13, 3-(4-{(2S)-2-{[(2R)-3-(7-methyl-1H-indazol-5-yl)-2-({[4-(2-oxo-2,3-dihydro-1H-imidazo[4,5-b]pyridin-1-yl)piperidin-1-yl]carbonyl}amino)propanoyl]amino}-3-oxo-3-[4-(pyridin-4-yl)piperazin-1-yl]propyl}piperidin-1-yl)-3-oxopropanoic Acid, ammonium Salt], for which the Kb in series [2] was 0.126 nM. For the same molecule, the pKi average in series [4] was 10.0.

As for `CCCCC(=O)N1CCC(C[C@H](NC(=O)[C@@H](Cc2cc(C)c3[nH]ncc3c2)NC(=O)N2CCC(c3cc4ccccc4[nH]c3=O)CC2)C(=O)N2CCN(c3ccncc3)CC2)CC1` [Example 6, N-[(2R)-3-(7-methyl-1H-indazol-5-yl)-1-oxo-1-({(2S)-1-oxo-3-(1-pentanoylpiperidin-4-yl)-1-[4-(pyridin-4-yl)piperazin-1-yl]propan-2-yl}amino)propan-2-yl]-4-(2-oxo-1,2-dihydroquinolin-3-yl)piperidine-1-carboxamide], in series [1], the “receptor dissociation (off-rate) compared with olcegepant or MK-3207” value is on record as “slow receptor dissociation” and the “CGRP t1/2” value stood at 20 min. In series [2], the Kb was 0.1 nM. Further, the pKi average in series [4] worked out at 10.0.

On to `Cc1cc(C[C@@H](NC(=O)N2CCC(c3cc4ccccc4[nH]c3=O)CC2)C(=O)N[C@@H](CC2CCN(C(=O)OC(C)(C)C)CC2)C(=O)N2CCN(c3ccncc3)CC2)cc2cn[nH]c12` [Example 2, tert-butyl 4-{(2S)-2-{[(2R)-3-(7-methyl-1H-indazol-5-yl)-2-({[4-(2-oxo-1,2-dihydroquinolin-3-yl)piperidin-1-yl]carbonyl}amino)propanoyl]amino}-3-oxo-3-[4-(pyridin-4-yl)piperazin-1-yl]propyl}piperidine-1-carboxylate], for which, in series [1], the “receptor dissociation (off-rate) compared with olcegepant or MK-3207” value is listed as “slow receptor dissociation” and the “CGRP t1/2” value is recorded as 78 min. Besides, the Kb in series [2] was 0.2 nM. Besides, in series [4], the pKi average stood at 10.0.

Take `CCN1CCC(C[C@H](NC(=O)[C@@H](Cc2cc(C)c3[nH]ncc3c2)NC(=O)N2CCC(c3cc4ccccc4[nH]c3=O)CC2)C(=O)N2CCN(c3ccncc3)CC2)CC1` [Example 7, N-[(2R)-1-({(2S)-3-(1-ethylpiperidin-4-yl)-1-oxo-1-[4-(pyridin-4-yl)piperazin-1-yl]propan-2-yl}amino)-3-(7-methyl-1H-indazol-5-yl)-1-oxopropan-2-yl]-4-(2-oxo-1,2-dihydroquinolin-3-yl)piperidine-1-carboxamide]: in series [1], the “receptor dissociation (off-rate) compared with olcegepant or MK-3207” value is recorded as “slow receptor dissociation” and the “CGRP t1/2” value came out at 36 min. For the same molecule, the Kb in series [2] was 0.0251 nM. The pKi average in series [4] is given as 10.4.

On to `Cc1cc(C[C@@H](NC(=O)N2CCC(n3c(=O)[nH]c4ncccc43)CC2)C(=O)N[C@@H](CC2CCN(CCN(C)C)CC2)C(=O)N2CCN(c3ccncc3)CC2)cc2cn[nH]c12` [Example 12, N-[(2R)-1-({(2S)-3-{1-[2-(dimethylamino)ethyl]piperidin-4-yl}-1-oxo-1-[4-(pyridin-4-yl)piperazin-1-yl]propan-2-yl}amino)-3-(7-methyl-1H-indazol-5-yl)-1-oxopropan-2-yl]-4-(2-oxo-2,3-dihydro-1H-imidazo[4,5-b]pyridin-1-yl)piperidine-1-carboxamide], for which the “CGRP t1/2” value in series [1] is listed as 101 min. Also, in series [2], the Kb was 0.0251 nM. The values for the solubility (thermodynamic) at 24 h in series [3] (setting [5]) and in series [3] (setting [6]) were 1960 µM (≈ 1630 µg/mL) and 1650 µM (≈ 1370 µg/mL), respectively.

Turning to `O=C(N[C@@H](CC1CCNCC1)C(=O)N1CCN(c2ccncc2)CC1)[C@@H](Cc1cc(Br)c(O)c(Br)c1)NC(=O)N1CCC(N2Cc3ccccc3NC2=O)CC1` [Example 9, 3,5-dibromo-Nα-{[4-(2-oxo-1,4-dihydroquinazolin-3(2H)-yl)piperidin-1-yl]carbonyl}-N-{(2S)-1-oxo-3-(piperidin-4-yl)-1-[4-(pyridin-4-yl)piperazin-1-yl]propan-2-yl}-D-tyrosinamide], in series [1], the “receptor dissociation (off-rate) compared with olcegepant or MK-3207” value was “slow receptor dissociation” and the “CGRP t1/2” value is on record as 32 min. Further, the Kb in series [2] was 0.00631 nM. For the same molecule, the pKi average in series [4] was 10.1.

As for `CCCN1CCC(C[C@H](NC(=O)[C@@H](Cc2cc(C)c3[nH]ncc3c2)NC(=O)N2CCC(c3cc4ccccc4[nH]c3=O)CC2)C(=O)N2CCN(c3ccncc3)CC2)CC1` [Example 4, N-[(2R)-3-(7-methyl-1H-indazol-5-yl)-1-oxo-1-({(2S)-1-oxo-3-(1-propylpiperidin-4-yl)-1-[4-(pyridin-4-yl)piperazin-1-yl]propan-2-yl}amino)propan-2-yl]-4-(2-oxo-1,2-dihydroquinolin-3-yl)piperidine-1-carboxamide], in series [1], the “receptor dissociation (off-rate) compared with olcegepant or MK-3207” value is “slow receptor dissociation” and the “CGRP t1/2” value was determined as 39 min. Further, the Kb in series [2] was 0.02 nM. The same molecule displayed a pKi average in series [4] of 10.4.
